# Measurements reported in patent US9492434B2, “Combination compositions and methods of treatment” (University of Florida Research Foundation, Inc., priority 2011, dated 2016).
# Columns and labels:
# Format in all cases: cell-based, human
# [1] = test system: E-Cadherin-containing complexes; test: GST pulldown (glutathione-agarose) of E-Cadherin complexes from 231/E-Cad-GST cells, immunoblot; settings: for stabilization of E-Cadherin/γ-Catenin complexes relative to vehicle: 10 nM Largazole, 1 μM SAHA, or 100 nM TSA (FIG. 6C)
# Experimental: Cells were subjected to hypotonic lysis and membrane fractions were isolated by centrifugation for one hour at 100,000×g. The pellet was solubilized by sonication in buffer containing 2% Triton X100, 20 mM HEPES (pH 7.4), 1 mM EDTA, 1 mM EGTA, 0.1% β-mercaptoethanol, 5% glycerol, 10 nM microcystin, 200 μM Na3VO4, and 40 mM Na2H2P2O7. The membrane extract was centrifuged for one hour at 100,000×g, and the supernatant was used for E-Cadherin purifications. Complexes containing E-Cad-GST were isolated using glutathione-agarose (G4510; Sigma-Aldrich, St. Louis, Mo.), washed, and either eluted with 5 mM glutathione or eluted by boiling in SDS-PAGE sample buffer. In sequential purifications involving γ-Catenin-His6 and E-Cad-GST proteins expressed in the same cells, TALON (635503; Clontech Laboratories, Inc., Mountain View, Calif.) resin purifications were performed as described previously (Chytil et al 2004), and the 400 mM imidazole eluents were diluted ten-fold and purified using glutathione-agarose, followed by elution with 5 mM glutathione. […] Immunoprecipitations were performed as described previously (Law et al 2002) using 2 mg of total protein extract per sample and 4 μg of antibody per sample. Immunoprecipitates prepared using antibodies to E-Cadherin (610182; BD Biosciences) or GST (sc-459; Santa Cruz Biotechnology Inc.) were isolated with 35 μl per sample Protein G-Sepharose (10-1242; Invitrogen), washed, and eluted by boiling in SDS-PAGE sample buffer.
# FIG. 6. […] A. Crude lysates (left panel) or GST pulldowns (right panel) from 231/E-Cad-GST cells treated for 72 hrs with 100 nM Dexamethasone, 10 nM Largazole, or Dex.+Larg. were analyzed by immunoblot. B. 231/E-Cad-GST cells were infected with an adenovirus encoding His6-tagged γ-Catenin and 231/neo cells were infected with an adenovirus encoding GFP and incubated 24 hours. The cells were then treated as indicated for 72 hrs with or without Dex.+Larg. γ-Catenin- and E-Cadherin containing complexes were isolated by sequential TALON and glutathione-agarose chromatography and analyzed by immunoblot. C. 231/E-Cad-GST cells were treated with 10 nM Largazole, 1 μM SAHA, or 100 nM TSA for 72 hrs and extracts were subjected to glutathione-agarose chromatography and the affinity purified material was analyzed by immunoblot.
# BT549 cells = settings: 72 hrs; 100 nM Dexamethasone, 10 nM Largazole, or both (FIG. 3D)
# [2] = test system: 231/E-GFP cell line (MDA-MB-231 cells stably expressing E-Cad-GFP); test: Fluorescence microscopy of E-Cad-GFP localization in 231/E-Cad-GFP cells; settings: 72 hrs, 100 nM Dexamethasone, 10 nM Largazole, or both (FIG. 3A)
# Experimental: Fluorescence and immunofluorescence microscopy were performed essentially as described previously (Corsino et al 2008) employing antibodies to E-Cadherin (610182; BD Bioscience) and γ-Catenin (138500; Invitrogen, Carlsbad, Calif.).
# The 231/E-GFP cell line was treated with a series of small molecule signaling agonists and antagonists to identify compounds that modulate E-Cadherin localization within the cell. […] Changes in E-Cadherin localization partially overlapped with changes in γ-Catenin localization. In vitro invasion assays were performed to determine the respective effects of E-Cadherin expression and Dex.+Larg. treatment on the invasiveness of MDA-MB-231 cells.
# FIG. 3. Dexamethasone and Largazole cooperate to suppress invasion and to restore E-Cadherin localization to the cell periphery. A. Fluorescence (E-Cad-GFP) or immunofluorescence microscopy (γ-Catenin (γ-Cat.)) of 231/E-Cad-GFP cells treated for 72 hrs with Vehicle (Control), 100 nM Dexamethasone, 10 nM Largazole, or 100 nM Dexamethasone+10 nM Largazole (Dex.+Larg.). […] BT549 cells were treated and analyzed by immunofluorescence microscopy as in FIG. 3A. D. BT549 cells were treated as described in FIG. 3A and analyzed for invasion as outlined in FIG. 3B.
# CDCP1 = CDCP1 immunoblot analysis, MDA-MB-231 cells; settings: 72 hr, Dexamethasone 100 nM, Largazole 10 nM (FIG. 5A, 5C)
SMILES,"stabilization of E-Cadherin/γ-Catenin complexes relative to vehicle ([1]; 231/E-Cad-GST cells, 72 hrs)",invasion of BT549 cells in vitro (BT549 cells),E-Cadherin localization to the cell-cell periphery [2],"CDCP1 cleavage (cleaved form cCDCP1, p80) (CDCP1)","γ-Catenin binding to E-Cadherin ([1]; 231/E-Cad-GST cells, 72 hrs, 100 nM Dexamethasone or 10 nM Largazole (FIG. 6A))","levels of γ-Catenin ([1]; 231/E-Cad-GST crude lysates, 72 hrs, 10 nM Largazole (FIG. 6A))",E-Cadherin association with β-Catenin ([1]; Largazole treatment)
"CC(/C=C/C(=O)NO)=C\[C@@H](C)C(=O)c1ccc(N(C)C)cc1 [TSA, Trichostatin A, reference compound]",stabilized E-Cadherin/γ-Catenin complexes to similar extents relative to vehicle treatment,–,–,–,–,–,–
"CCCCCCCC(=O)SCC/C=C/[C@@H]1CC(=O)NCc2nc(cs2)C2=N[C@@](C)(CS2)C(=O)N[C@@H](C(C)C)C(=O)O1 [Largazole, largazole]",stabilized E-Cadherin/γ-Catenin complexes to similar extents relative to vehicle treatment,suppressed the invasion of BT549 cells in vitro,modestly increased E-Cadherin localization to the cell-cell periphery,did not influence CDCP1 cleavage,preferentially increased γ-Catenin binding to E-Cadherin relative to β-Catenin binding,without changing the levels of γ-Catenin,little effect on E-Cadherin association with β-Catenin
"O=C(CCCCCCC(=O)Nc1ccccc1)NO [SAHA, suberoylanilide hydroxamic acid, reference compound]",stabilized E-Cadherin/γ-Catenin complexes to similar extents relative to vehicle treatment,–,–,–,–,–,–
